Patent publication US10131652B2, “Pyrimidinyloxy benzene derivatives as herbicides” (E. I. DU PONT DE NEMOURS AND COMPANY, priority 2014, dated 2018)

Experiments:
Assay type in all cases: in vivo
[1] = tested on: Italian ryegrass (Lolium multiflorum); experiment: Test B pre-/postemergence plant response
Outline: (§1)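 Seeds in loam–sand blend given preemergence soil spray; separately, plants at one- to two-leaf stage (2–10 cm) sprayed postemergence, compounds in non-phytotoxic solvent with surfactant. Injury rated visually versus untreated controls after ~10 days in greenhouse, 0 (no effect) to 100 (complete control).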

[2] = tested on: kochia (Kochia scoparia); experiment: Test B pre-/postemergence plant response
Outline: as §1

[3] = tested on: ragweed (common ragweed, Ambrosia elatior); experiment: Test B pre-/postemergence plant response
Outline: as §1

[4] = tested on: barnyardgrass (Echinochloa crus-galli); experiment: Test C flooded paddy test plant response; conditions: Flood, 250 g ai/ha; scale of 0 to 100 where 0 is no effect and 100 is complete control; 13 to 15 days
Outline: (§2)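 Scale 0 (no effect) to 100 (complete control), assigned visually versus controls after 13–15 d greenhouse. Application: directly to paddy water, 3 cm flood depth kept constant, 2-leaf stage.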

[5] = tested on: ducksalad (Heteranthera limosa); experiment: Test C flooded paddy test plant response; conditions: Flood, 250 g ai/ha; scale of 0 to 100 where 0 is no effect and 100 is complete control; 13 to 15 days
Outline: as §2

[6] = tested on: rice (Oryza sativa); experiment: Test C flooded paddy test plant response; conditions: Flood, 250 g ai/ha; scale of 0 to 100 where 0 is no effect and 100 is complete control; 13 to 15 days
Outline: as §2

[7] = tested on: small-flower umbrella sedge (Cyperus difformis); experiment: Test C flooded paddy test plant response; conditions: Flood, 250 g ai/ha; scale of 0 to 100 where 0 is no effect and 100 is complete control; 13 to 15 days
Outline: as §2

[8] = tested on: barnyardgrass (Echinochloa crus-galli); experiment: Test D pre-/postemergence plant response
Outline: (§3)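 Sown seed (loam/sand soil) treated preemergence; emerged plants, 1- to 4-leaf stage and 2 to 18 cm, treated postemergence in peat/vermiculite medium. Greenhouse incubation 13–15 d. Endpoint: visual 0–100 rating versus untreated.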

[9] = tested on: blackgrass (Alopecurus myosuroides); experiment: Test D pre-/postemergence plant response
Outline: as §3

[10] = tested on: giant foxtail (Setaria faberii); experiment: Test D pre-/postemergence plant response
Outline: as §3

[11] = tested on: johnsongrass (Sorghum halepense); experiment: Test D pre-/postemergence plant response
Outline: as §3

[12] = tested on: oilseed rape (Brassica napus); experiment: Test D pre-/postemergence plant response
Outline: as §3

[13] = tested on: pigweed (Amaranthus retroflexus); experiment: Test D pre-/postemergence plant response
Outline: as §3

[14] = tested on: velvetleaf (Abutilon theophrasti); experiment: Test D pre-/postemergence plant response
Outline: as §3

[15] = 31 g ai/ha, Preemergence, 0 to 100 scale where 0 is no effect and 100 is complete control
[16] = 125 g ai/ha, postemergence, 0 to 100 scale, 0 no effect, 100 complete control
[17] = Preemergence, 125 g ai/ha, 0 to 100 scale (0 no effect, 100 complete control)
[18] = Postemergence, 16 g ai/ha, scale 0 to 100 (0 no effect, 100 complete control)
[19] = Postemergence, 31 g ai/ha, scale 0 to 100 (0 no effect, 100 complete control)
[20] = Postemergence, 62 g ai/ha, scale 0 to 100, 0 no effect, 100 complete control
[21] = Postemergence, 125 g ai/ha, scale 0 to 100, 0 no effect, 100 complete control
[22] = Preemergence, 16 g ai/ha, scale 0 to 100 (0 no effect, 100 complete control)
[23] = Preemergence, 31 g ai/ha, scale 0 to 100 (0 no effect, 100 complete control)
[24] = Preemergence, 62 g ai/ha, scale 0 to 100 (0 no effect, 100 complete control)

Compound: FC(F)Oc1cccc(Oc2ncc(Cl)cn2)c1-c1cc(C(F)F)on1 [Compound 131]
- Plant response rating, Ryegrass, Italian [1, 15]: 20
- Plant response rating, Ryegrass, Italian [1, 16]: 70
- Ryegrass, Italian plant response rating [1, 17]: 90
- Plant response rating, Kochia [2, 15]: 0
- Plant response rating, Kochia [2, 16]: 70
- Kochia plant response rating [2, 17]: 10
- Plant response rating, Ragweed [3, 15]: 20
- Plant response rating, Ragweed [3, 16]: 70
- Ragweed plant response rating [3, 17]: 60
- Barnyardgrass plant response rating [4]: 75
- Ducksalad plant response rating [5]: 95
- Rice plant response rating [6]: 60
- Sedge, Umbrella plant response rating [7]: 95
- Barnyardgrass plant response rating [8, 18]: 10
- Barnyardgrass plant response rating [8, 19]: 10
- Plant response rating, Barnyardgrass [8, 20]: 10
- Plant response rating, Barnyardgrass [8, 21]: 20
- Plant response rating (scale 0 to 100), Barnyardgrass ([8]; Preemergence, 125 g ai/ha): 100
- Plant response rating, Barnyardgrass [8, 22]: 30
- Plant response rating, Barnyardgrass [8, 23]: 75
- Plant response rating, Barnyardgrass [8, 24]: 85
- Blackgrass plant response rating [9, 18]: 5
- Blackgrass plant response rating [9, 19]: 5
- Plant response rating, Blackgrass [9, 20]: 5
- Plant response rating, Blackgrass [9, 21]: 30
- Plant response rating (scale 0 to 100), Blackgrass ([9]; Preemergence, 125 g ai/ha): 95
- Plant response rating, Blackgrass [9, 22]: 5
- Plant response rating, Blackgrass [9, 23]: 80
- Plant response rating, Blackgrass [9, 24]: 90
- Foxtail, Giant plant response rating [10, 18]: 10
- Foxtail, Giant plant response rating [10, 19]: 10
- Plant response rating, Foxtail, Giant [10, 20]: 15
- Plant response rating, Foxtail, Giant [10, 21]: 15
- Plant response rating (scale 0 to 100), Foxtail, Giant ([10]; Preemergence, 125 g ai/ha): 100
- Plant response rating, Foxtail, Giant [10, 22]: 80
- Plant response rating, Foxtail, Giant [10, 23]: 100
- Plant response rating, Foxtail, Giant [10, 24]: 100
- Johnsongrass plant response rating [11, 19]: 5
- Plant response rating, Johnsongrass [11, 20]: 25
- Plant response rating, Johnsongrass [11, 21]: 45
- Plant response rating (scale 0 to 100), Johnsongrass ([11]; Preemergence, 125 g ai/ha): 85
- Plant response rating, Johnsongrass [11, 22]: 0
- Plant response rating, Johnsongrass [11, 23]: 30
- Plant response rating, Johnsongrass [11, 24]: 80
- Oilseed Rape plant response rating [12, 19]: 45
- Plant response rating, Oilseed Rape [12, 20]: 80
- Plant response rating, Oilseed Rape [12, 21]: 85
- Plant response rating (scale 0 to 100), Oilseed Rape ([12]; Preemergence, 125 g ai/ha): 95
- Plant response rating, Oilseed Rape [12, 22]: 10
- Plant response rating, Oilseed Rape [12, 23]: 50
- Plant response rating, Oilseed Rape [12, 24]: 85
- Pigweed plant response rating [13, 19]: 98
- Plant response rating, Pigweed [13, 20]: 98
- Plant response rating, Pigweed [13, 21]: 100
- Plant response rating (scale 0 to 100), Pigweed ([13]; Preemergence, 125 g ai/ha): 100
- Plant response rating, Pigweed [13, 22]: 100
- Plant response rating, Pigweed [13, 23]: 100
- Plant response rating, Pigweed [13, 24]: 100
- Velvetleaf plant response rating [14, 19]: 65
- Plant response rating, Velvetleaf [14, 20]: 80
- Plant response rating, Velvetleaf [14, 21]: 85
- Plant response rating (scale 0 to 100), Velvetleaf ([14]; Preemergence, 125 g ai/ha): 98
- Plant response rating, Velvetleaf [14, 22]: 20
- Plant response rating, Velvetleaf [14, 23]: 65
- Plant response rating, Velvetleaf [14, 24]: 80
